{"source": "patent US4192896A", "about": "“Method of using dialkylphenols in the treatment of mycoplasma diseases” (priority 1979, dated 1980)", "key": {"M. pneumoniae [1]": {"tested_on": "M. pneumoniae", "test": "Relative activity of hamster tracheal explants infected with M. pneumoniae", "type": "cell-based", "details": "for Relative Activity Days Following Infection With M. Pneumoniae / Relative Activity 7 days post infection: infecting titer 6 × 10^6 CFU/ml; for Relative Activity 7 days post infection: Table 4", "description": "(§1) Adult golden hamsters (approximately 140 g. male and female) were used as the tissue source. Animals appearing to be disease-free were selected. Tracheas were removed aseptically and sliced into rings. The rings were rinsed and then transfered into sterile Petri dishes containing a shallow layer of minimal essential medium (MEM, with glutamine, NaHCO3, 10% horse serum and 500 units of penicillin G/ml). These organ cultures were incubated for 24 hours at 36° C. in 5% carbon dioxide and then scored for \"relative activity\" (RA), a measure of explant viability. \"Relative Activity\" (0 to 300) is the product of the percentage of the epithelial layer which is intact (0 to 100) and the relative vigor of ciliary beating (0 to 3).\n(§2) The trachea rings were infected with M. pneumonia, strain PI 1428 (originally obtained from Dr. Robert Chanock, National Institutes of Health, Bethesda, Md.) which was used in the 10th to 12th passage and was grown on G-199 medium. Tracheal explants were infected with logarithmically growing cells using methods described by Gabridge, et al. Except where otherwise noted, groups of from 3 to 6 rings were preincubated for one hour in MEM with or without an appropriate amount of 2,4-dimethylphenol prior to the addition of mycoplasmas. Following exposure to M. pneumoniae for two hours, the rings were rinsed twice in phosphate buffered saline and then placed in a sterile Petri dish containing MEM and, where indicated, the required amount of 2,4-dimethylphenol or 2,4-DMP as used herein. Cultures were incubated at 36° in 5% carbon dioxide and scored daily for RA.\n(§3) Infection Studies: M. pneumoniae attaches to the surface (as used herein the surface refers to in luminal epithelial lining) of the tracheal tissue within an hour or two following exposure. Decreases in the vigor of ciliary activity and loss of epithelial cells are evident within 24 to 48 hours post-infection. In most cases, little or no ciliary activity remains by the sixth or seventh day.\n(§4) Time Course: In the studies reported thus far, tracheal explants were pretreated with 2,4-DMP for one hour before exposure to M. pneumoniae. Some insight into the nature, that is, the site or mode of action, of this protective phenomenon may be gained by altering the time at which 2,4-DMP is added to the culture media."}, "M. pneumoniae [2]": {"tested_on": "M. pneumoniae", "test": "Tetrazolium reduction by hamster tracheal explants infected with M. pneumoniae", "type": "cell-based", "details": "for Tetrazolium Reduction 7 days post infection: Table 4, infecting titer 6 × 10^6 CFU/ml", "description": "as §2, §4"}, "[3]": {"tested_on": "uninfected hamster tracheal explants", "test": "Electron microscopic and histopathic examination of uninfected hamster tracheal explants exposed to 2,4-DMP", "type": "cell-based, golden hamster", "details": "10^-3 and 10^-4 M", "description": "as §1"}, "M. pneumoniae [4]": {"tested_on": "M. pneumoniae", "test": "Surface morphology of tracheal rings exposed to M. pneumoniae", "type": "cell-based", "details": "at least 10^-9 M", "description": "as §2, §3"}, "M. pneumoniae [5]": {"tested_on": "M. pneumoniae", "test": "Protection of tracheal explants against the M. pneumoniae infective process (overall, in words)", "type": "cell-based", "description": "as §1, §2, §4"}, "[6]": {"details": "culture A, 2,4 DMP added at -1 hours"}, "[7]": {"details": "culture B, 2,4 DMP added at 0 hours"}, "[8]": {"details": "culture C, 2,4 DMP added at 1 hours"}, "[9]": {"details": "culture D, 2,4 DMP added at 2 hours"}, "[10]": {"details": "culture E, 2,4 DMP added at 6 hours"}, "[11]": {"details": "culture F, 2,4 DMP added at 24 hours"}, "[12]": {"details": "culture G, 2,4 DMP added at 48 hours"}, "[13]": {"details": "culture H, 2,4 DMP added at 72 hours"}}}
{"compound": "Cc1ccc(O)c(C)c1", "note": "[2,4-DMP, 2,4-dimethylphenol]", "values": [{"measurement": "Relative Activity Days Following Infection With M. Pneumoniae", "setting": "M. pneumoniae [1]; 10^-8 moles/liter, day 1", "result": "270 ± 0"}, {"measurement": "Relative Activity Days Following Infection With M. Pneumoniae", "setting": "M. pneumoniae [1]; 10^-8 moles/liter, day 2", "result": "270 ± 0"}, {"measurement": "Relative Activity Days Following Infection With M. Pneumoniae", "setting": "M. pneumoniae [1]; 10^-8 moles/liter, day 3", "result": "260 ± 16"}, {"measurement": "Relative Activity Days Following Infection With M. Pneumoniae", "setting": "M. pneumoniae [1]; 10^-8 moles/liter, day 4", "result": "260 ± 16"}, {"measurement": "Relative Activity Days Following Infection With M. Pneumoniae", "setting": "M. pneumoniae [1]; 10^-8 moles/liter, day 5", "result": "260 ± 16"}, {"measurement": "Relative Activity Days Following Infection With M. Pneumoniae", "setting": "M. pneumoniae [1]; 10^-8 moles/liter, day 6", "result": "255 ± 16"}, {"measurement": "Relative Activity Days Following Infection With M. Pneumoniae", "setting": "M. pneumoniae [1]; 10^-8 moles/liter, day 7", "result": "255 ± 16"}, {"measurement": "Relative Activity Days Following Infection With M. Pneumoniae", "setting": "M. pneumoniae [1]; 10^-10 moles/liter, day 1", "result": "260 ± 16"}, {"measurement": "Relative Activity Days Following Infection With M. Pneumoniae", "setting": "M. pneumoniae [1]; 10^-10 moles/liter, day 2", "result": "255 ± 16"}, {"measurement": "Relative Activity Days Following Infection With M. Pneumoniae", "setting": "M. pneumoniae [1]; 10^-10 moles/liter, day 3", "result": "240 ± 19"}, {"measurement": "Relative Activity Days Following Infection With M. Pneumoniae", "setting": "M. pneumoniae [1]; 10^-10 moles/liter, day 4", "result": "175 ± 23"}, {"measurement": "Relative Activity Days Following Infection With M. Pneumoniae", "setting": "M. pneumoniae [1]; 10^-10 moles/liter, day 5", "result": "150 ± 19"}, {"measurement": "Relative Activity Days Following Infection With M. Pneumoniae", "setting": "M. pneumoniae [1]; 10^-10 moles/liter, day 6", "result": "135 ± 16"}, {"measurement": "Relative Activity Days Following Infection With M. Pneumoniae", "setting": "M. pneumoniae [1]; 10^-10 moles/liter, day 7", "result": "115 ± 23"}, {"measurement": "Relative Activity 7 days post infection", "setting": "M. pneumoniae [1]; 10^-6 moles/liter", "result": "255 ± 16"}, {"measurement": "Relative Activity 7 days post infection", "setting": "M. pneumoniae [1]; 10^-7 moles/liter", "result": "255 ± 16"}, {"measurement": "Relative Activity 7 days post infection", "setting": "M. pneumoniae [1]; 10^-8 moles/liter", "result": "260 ± 10"}, {"measurement": "Relative Activity 7 days post infection", "setting": "M. pneumoniae [1]; 10^-9 moles/liter", "result": "263 ± 12"}, {"measurement": "Relative Activity 7 days post infection", "setting": "M. pneumoniae [1]; 10^-10 moles/liter", "result": "114 ± 22"}, {"measurement": "Relative Activity 7 days post infection", "setting": "M. pneumoniae [1]; 10^-14 moles/liter", "result": "125 ± 23"}, {"measurement": "Relative Activity 7 days post infection", "setting": "M. pneumoniae [1]", "result": "124 ± 18"}, {"measurement": "RA of rings exposed to M. pneumoniae compared with uninfected controls", "setting": "M. pneumoniae [1]; at least 10^-9 M", "result": "indistinguishable from uninfected controls"}, {"measurement": "Relative Activity 7 Days Following Infection With M. Pneumoniae", "setting": "M. pneumoniae [1]; [6]", "result": "268 ± 6"}, {"measurement": "Relative Activity 7 Days Following Infection With M. Pneumoniae", "setting": "M. pneumoniae [1]; [7]", "result": "268 ± 6"}, {"measurement": "Relative Activity 7 Days Following Infection With M. Pneumoniae", "setting": "M. pneumoniae [1]; [8]", "result": "265 ± 8"}, {"measurement": "Relative Activity 7 Days Following Infection With M. Pneumoniae", "setting": "M. pneumoniae [1]; [9]", "result": "220 ± 23"}, {"measurement": "Relative Activity 7 Days Following Infection With M. Pneumoniae", "setting": "M. pneumoniae [1]; [10]", "result": "188 ± 23"}, {"measurement": "Relative Activity 7 Days Following Infection With M. Pneumoniae", "setting": "M. pneumoniae [1]; [11]", "result": "98 ± 16"}, {"measurement": "Relative Activity 7 Days Following Infection With M. Pneumoniae", "setting": "M. pneumoniae [1]; [12]", "result": "95 ± 12"}, {"measurement": "Relative Activity 7 Days Following Infection With M. Pneumoniae", "setting": "M. pneumoniae [1]; [13]", "result": "92 ± 15"}, {"measurement": "Tetrazolium Reduction 7 days post infection", "setting": "M. pneumoniae [2]; 10^-8 moles/liter", "result": "1.066 ± 0.035"}, {"measurement": "Tetrazolium Reduction 7 days post infection", "setting": "M. pneumoniae [2]; 10^-9 moles/liter", "result": "1.016 ± 0.029"}, {"measurement": "Tetrazolium Reduction 7 days post infection", "setting": "M. pneumoniae [2]; 10^-10 moles/liter", "result": "0.543 ± 0.142"}, {"measurement": "Tetrazolium Reduction 7 days post infection", "setting": "M. pneumoniae [2]; 10^-22 moles/liter (so in the source)", "result": "0.453 ± 0.033"}, {"measurement": "ability to reduce tetrazolium of rings exposed to M. pneumoniae compared with uninfected controls", "setting": "M. pneumoniae [2]; at least 10^-9 M", "result": "indistinguishable from uninfected controls"}, {"measurement": "Tetrazolium Reduction 7 Days Following Infection With M. Pneumoniae", "setting": "M. pneumoniae [2]; [6]", "result": "1.071 ± 0.065", "unit": "OD/mg"}, {"measurement": "Tetrazolium Reduction 7 Days Following Infection With M. Pneumoniae", "setting": "M. pneumoniae [2]; [7]", "result": "1.068 ± 0.050", "unit": "OD/mg"}, {"measurement": "Tetrazolium Reduction 7 Days Following Infection With M. Pneumoniae", "setting": "M. pneumoniae [2]; [8]", "result": "1.062 ± 0.039", "unit": "OD/mg"}, {"measurement": "Tetrazolium Reduction 7 Days Following Infection With M. Pneumoniae", "setting": "M. pneumoniae [2]; [9]", "result": "0.893 ± 0.055", "unit": "OD/mg"}, {"measurement": "Tetrazolium Reduction 7 Days Following Infection With M. Pneumoniae", "setting": "M. pneumoniae [2]; [10]", "result": "0.722 ± 0.032", "unit": "OD/mg"}, {"measurement": "Tetrazolium Reduction 7 Days Following Infection With M. Pneumoniae", "setting": "M. pneumoniae [2]; [11]", "result": "0.386 ± 0.030", "unit": "OD/mg"}, {"measurement": "Tetrazolium Reduction 7 Days Following Infection With M. Pneumoniae", "setting": "M. pneumoniae [2]; [12]", "result": "0.379 ± 0.051", "unit": "OD/mg"}, {"measurement": "Tetrazolium Reduction 7 Days Following Infection With M. Pneumoniae", "setting": "M. pneumoniae [2]; [13]", "result": "0.381 ± 0.048", "unit": "OD/mg"}, {"measurement": "electron microscopic and histopathic examination of epithelium", "setting": "[3]", "result": "destruction of their epithelium"}, {"measurement": "surface morphology of rings exposed to M. pneumoniae compared with uninfected controls", "setting": "M. pneumoniae [4]", "result": "indistinguishable from uninfected controls"}, {"measurement": "protective effects on delayed addition", "setting": "M. pneumoniae [5]; 2,4-DMP withheld until attachment is essentially complete", "result": "significantly reduced or abolished completely"}, {"measurement": "alteration of the infectious process", "setting": "M. pneumoniae [5]; concentrations less than or equal to 10^-10 M", "result": "failed to alter the infectious process"}, {"measurement": "inhibiting or altering the course of the infective process, relative to the other dimethylphenol isomers", "setting": "M. pneumoniae [5]; conditions of these studies and at the concentrations tested", "result": "more effective than any of the other isomers"}, {"measurement": "effect on the course of infection of explants exposed to M. pneumoniae", "setting": "M. pneumoniae [5]; very low concentrations in the culture media", "result": "dramatically alters the usual course of events"}]}
